≈ marks a conversion by molar mass, not a printed value. Like-named read-outs stand apart in the source and are kept apart here.
Tests used:
Type in all cases: cell-based
[1] = tested on: Escherichia coli; assay: MIC/MBC broth dilution, Escherichia coli patient isolates
Description: (§1) The Minimal inhibitory concentration (MIC) and the Minimal bactericidal concentration (MBC) have been tested against various bacteria including patient isolates and antibiotic resistant strains such as S. aureus ATCC 25923, E. coli ATCC 25922, P. aeruginosa ATCC 27853.
(§2) The bacteria were streaked on a nutrient agar plate to obtain a freshly isolated colony subsequently incubated overnight at 37° C. 4-5 isolated colonies were added into Mueller Hinton broth (MHB) solution, incubated for 4 hrs at 37° C. The turbidity was adjusted to the McFarland tube and the solution was diluted with MHB to 1:200.
(§3) The test solution was diluted with dimethyl sulfoxide (DMSO) and MHB in the ratio of 1:4 to get a final concentration of 512 μg/ml. 50 μl of MHB were added to each of twelve wells except the first well. Dilutions were made, mixed and the solutions were then incubated overnight at 37° C.
(§4) In order to determine the MBC, a loopful of each clear well was streaked onto a nutrient containing agar plate, which was subsequently incubated overnight at 37° C. The MBC was then determined as the lowest concentration which has shown no visible colony for each chemical.

[2] = tested on: S. aureus ATCC 25923; assay: MIC/MBC broth dilution, S. aureus ATCC 25923; settings: Staphylococcus aureus, ATCC25923; S. aureus ATCC 25923, resistant strain (footnote 3)
Description: as §1, §2, §3, §4

[3] = tested on: Acinetobacter spp.; assay: MIC/MBC broth dilution, Acinetobacter spp. patient isolates
Description: as §1, §2, §3, §4

[4] = tested on: E. coli ATCC 25922; assay: MIC/MBC broth dilution, E. coli ATCC 25922; settings: Escherichia coli, ATCC25922; E. coli ATCC 25922, resistant strain (footnote 3)
Description: as §1, §2, §3, §4

[5] = tested on: various bacteria including patient isolates and antibiotic resistant strains; assay: Antibacterial evaluation across all bacteria tested (summary of MIC/MBC)
Description: as §1, §2
The test solution was diluted with dimethyl sulfoxide (DMSO) and MHB in the ratio of 1:4 to get a final concentration of 512 μg/ml. 50 μl of MHB were added to each of twelve wells except the first well. […]
as §4
The first step in the evaluation was to determine the zone of inhibition on agar plates comparing the Example compounds with ampicillin and chloramphenicol as standards. Following this initial screening, the MIC/MBC was determined as previously described and the results are outlined in Table 1 for selected examples.

[6] = tested on: P. aeruginosa ATCC 27853; assay: MIC/MBC broth dilution, P. aeruginosa ATCC 27853; settings: Pseudomonas aeruginosa, ATCC27853; P. aeruginosa ATCC 27853, resistant strain (footnote 3)
Description: as §1, §2, §3, §4

[7] = tested on: Enterobacter spp.; assay: MIC/MBC broth dilution, Enterobacter spp. patient isolates
Description: as §1, §2, §3, §4

[8] = tested on: Staphylococcus aureus; assay: MIC/MBC broth dilution, Staphylococcus aureus patient isolates
Description: as §1, §2, §3, §4

[9] = tested on: Klebsiella pneumoniae; assay: MIC/MBC broth dilution, Klebsiella pneumoniae patient isolates
Description: as §1, §2, §3, §4

[10] = tested on: Pseudomonas aeruginosa; assay: MIC/MBC broth dilution, Pseudomonas aeruginosa patient isolates
Description: as §1, §2, §3, §4

[11] = patient isolates, isolate code not given (one value per isolate)
[12] = Acinetobacter, patient isolates, isolate code not given (one value per isolate), read-out: MIC
[13] = Enterobacter, patient isolates, isolate code not given (one value per isolate)
[14] = Enterobacter, patient isolate En1

## O=C1OC2C(=C1Cl)N2Cc1ccccc1 (stereo not drawn) [Example 4, 4-chloro-6-benzyl-2-oxa-6-azabicyclo[3.1.0]hex-4-en-3-one]
[1]; [11]
  MBC: 16 µg/mL (≈ 72.2 µM)
  MIC: 16 µg/mL (≈ 72.2 µM)
[2]
  MBC: 8 µg/mL (≈ 36.1 µM)
  MIC: 4 µg/mL (≈ 18 µM)
[3]; Acinetobacter, patient isolates, isolate code not given (one value per isolate), read-out: MBC
  MBC: 8 µg/mL (≈ 36.1 µM)
[3]; [12]
  MIC: 4 µg/mL (≈ 18 µM)
[3]; [11]
  MBC: 16 µg/mL (≈ 72.2 µM)
  MIC: 8 µg/mL (≈ 36.1 µM)
[4]
  MBC: 16 µg/mL (≈ 72.2 µM)
  MIC: 8 µg/mL (≈ 36.1 µM)
[5]; summary of Table 1
  broad spectrum antibacterial activity: good broad spectrum activity
[6]
  MBC: 32 µg/mL (≈ 144 µM)
  MIC: 16 µg/mL (≈ 72.2 µM)
[7]; [13]
  MBC: 16 µg/mL (≈ 72.2 µM)
  MIC: 8 µg/mL (≈ 36.1 µM)
[7]; [11]
  MBC: 32 µg/mL (≈ 144 µM)
  MIC: 16 µg/mL (≈ 72.2 µM)

## O=C1OC2NC2=C1Cl (stereo not drawn) [Example 3, 4-chloro-2-oxa-6-azabicyclo[3.1.0]hex-4-en-3-one]
[1]; [11]
  MBC: 128 µg/mL (≈ 973 µM)
  MIC: 64 µg/mL (≈ 487 µM)
[2]
  MBC: > 128 µg/mL
  MIC: 128 µg/mL (≈ 973 µM)
[3]; [12]
  MIC: 32 µg/mL (≈ 243 µM)
[4]
  MBC: 128 µg/mL (≈ 973 µM)
  MIC: 128 µg/mL (≈ 973 µM)
[6]
  MBC: 128 µg/mL (≈ 973 µM)
  MIC: 128 µg/mL (≈ 973 µM)
[8]; [11]
  MBC: > 128 µg/mL
  MIC: 128 µg/mL (≈ 973 µM)
[7]; [13]
  MBC: 64 µg/mL (≈ 487 µM)
  MIC: 64 µg/mL (≈ 487 µM)
[9]; [11]
  MBC: 64 µg/mL (≈ 487 µM)
  MIC: 64 µg/mL (≈ 487 µM)
[10]; [11]
  MBC: 128 µg/mL (≈ 973 µM)
  MIC: 128 µg/mL (≈ 973 µM)

## CN1C2=C(Cl)C(=O)OC21 (stereo not drawn) [Example 1, 4-chloro-6-methyl-2-oxa-6-azabicyclo[3.1.0]hex-4-en-3-one]
[1]; patient isolate E1
  MBC: 32 µg/mL (≈ 220 µM)
  MIC: 32 µg/mL (≈ 220 µM)
[1]; patient isolate E2
  MBC: 64 µg/mL (≈ 440 µM)
  MIC: 64 µg/mL (≈ 440 µM)
[1]; patient isolate E3
  MBC: 64 µg/mL (≈ 440 µM)
  MIC: 64 µg/mL (≈ 440 µM)
[1]; patient isolate E4
  MBC: 64 µg/mL (≈ 440 µM)
  MIC: 32 µg/mL (≈ 220 µM)
[1]; patient isolate E5
  MBC: 64 µg/mL (≈ 440 µM)
  MIC: 64 µg/mL (≈ 440 µM)
[2]
  MBC: 64 µg/mL (≈ 440 µM)
  MIC: 16 µg/mL (≈ 110 µM)
[3]; Acinetobacter, patient isolate A1, read-out: MBC
  MBC: 16 µg/mL (≈ 110 µM)
[3]; Acinetobacter, patient isolate A1, read-out: MIC
  MIC: 8 µg/mL (≈ 55 µM)
[3]; Acinetobacter, patient isolate A2, read-out: MBC
  MBC: 64 µg/mL (≈ 440 µM)
[3]; Acinetobacter, patient isolate A2, read-out: MIC
  MIC: 64 µg/mL (≈ 440 µM)
[3]; Acinetobacter, patient isolate A3, read-out: MBC
  MBC: 32 µg/mL (≈ 220 µM)
[3]; Acinetobacter, patient isolate A3, read-out: MIC
  MIC: 16 µg/mL (≈ 110 µM)
[3]; Acinetobacter, patient isolate A4, read-out: MBC
  MBC: 64 µg/mL (≈ 440 µM)
[3]; Acinetobacter, patient isolate A4, read-out: MIC
  MIC: 64 µg/mL (≈ 440 µM)
[3]; Acinetobacter, patient isolate A5, read-out: MBC
  MBC: 32 µg/mL (≈ 220 µM)
[3]; Acinetobacter, patient isolate A5, read-out: MIC
  MIC: 32 µg/mL (≈ 220 µM)
[4]
  MBC: 32 µg/mL (≈ 220 µM)
  MIC: 16 µg/mL (≈ 110 µM)
[5]; resistant ATCC strains vs patient isolates
  MIC for antibiotic resistant strains compared with corresponding non-resistant isolates: lower MIC for the antibiotic resistant strains than the corresponding non-resistant isolates
[6]
  MBC: 32 µg/mL (≈ 220 µM)
  MIC: 32 µg/mL (≈ 220 µM)
[8]; patient isolate S1
  MBC: > 128 µg/mL
  MIC: 128 µg/mL (≈ 879 µM)
[8]; patient isolate S2
  MBC: > 128 µg/mL
  MIC: 128 µg/mL (≈ 879 µM)
[8]; patient isolate S3
  MBC: 128 µg/mL (≈ 879 µM)
  MIC: 64 µg/mL (≈ 440 µM)
[8]; patient isolate S4
  MBC: > 128 µg/mL
  MIC: 64 µg/mL (≈ 440 µM)
[7]; [14]
  MBC: 64 µg/mL (≈ 440 µM)
  MIC: 32 µg/mL (≈ 220 µM)
[7]; Enterobacter, patient isolate En3, read-out: MBC
  MBC: 32 µg/mL (≈ 220 µM)
[7]; Enterobacter, patient isolate En3, read-out: MIC
  MIC: 32 µg/mL (≈ 220 µM)
[7]; Enterobacter, patient isolate En4, read-out: MBC
  MBC: 128 µg/mL (≈ 879 µM)
[7]; Enterobacter, patient isolate En4, read-out: MIC
  MIC: 64 µg/mL (≈ 440 µM)
[7]; Enterobacter, patient isolate En5, read-out: MBC
  MBC: 64 µg/mL (≈ 440 µM)
[7]; Enterobacter, patient isolate En5, read-out: MIC
  MIC: 64 µg/mL (≈ 440 µM)
[9]; patient isolate K1
  MBC: 64 µg/mL (≈ 440 µM)
  MIC: 64 µg/mL (≈ 440 µM)
[9]; patient isolate K2
  MBC: 64 µg/mL (≈ 440 µM)
  MIC: 32 µg/mL (≈ 220 µM)
[9]; patient isolate K3
  MBC: 32 µg/mL (≈ 220 µM)
  MIC: 32 µg/mL (≈ 220 µM)
[9]; patient isolate K4
  MBC: 128 µg/mL (≈ 879 µM)
  MIC: 128 µg/mL (≈ 879 µM)
[9]; patient isolate K5
  MBC: 64 µg/mL (≈ 440 µM)
  MIC: 64 µg/mL (≈ 440 µM)
[10]; patient isolate P7
  MBC: 64 µg/mL (≈ 440 µM)
  MIC: 32 µg/mL (≈ 220 µM)
[10]; patient isolate P10
  MBC: 64 µg/mL (≈ 440 µM)
  MIC: 64 µg/mL (≈ 440 µM)
[10]; patient isolate P12
  MBC: 128 µg/mL (≈ 879 µM)
  MIC: 128 µg/mL (≈ 879 µM)
[10]; patient isolate P13
  MBC: 64 µg/mL (≈ 440 µM)
  MIC: 32 µg/mL (≈ 220 µM)
[10]; patient isolate P14
  MBC: 64 µg/mL (≈ 440 µM)
  MIC: 32 µg/mL (≈ 220 µM)
[10]; patient isolate P16
  MBC: 64 µg/mL (≈ 440 µM)
  MIC: 32 µg/mL (≈ 220 µM)
